# Paper PMC12679539, “Synthesis and evaluation of nitroheterocyclic aromatic adamantane amides with trypanocidal activity. Part II” (RSC Medicinal Chemistry, 2025)
# Tests used:
# [1] = system: L. infantum promastigotes; assay: Activity against Leishmania infantum promastigotes (resazurin assay); type: cell-based, Leishmania infantum (MHOM/MA/67/ITMAP-263); conditions: for IC50: Leishmania infantum, promastigotes, 72 h, 95% CI in brackets; for SI (promastigotes) CC50/Li IC50: THP-1 CC50 / L. infantum promastigote IC50
# Description: Promastigotes from the L. infantum strain (MHOM/MA/67/ITMAP-263) were cultivated in 5 ml of Schneider's insect medium, which was supplemented with 10% heat-inactivated fetal bovine serum (FBS), 200 U ml^−1 of penicillin/streptomycin, 6 μg ml^−1 of phenol red, and 5 mM of HEPES. The cultures were maintained in an incubator at 27 °C and diluted to a concentration of 2 × 10^5 cells per ml every 5 days. For the assays the parasites used were equivalent to late/log with two or three days of culture.
# The efficacy of the compounds against L. infantum promastigotes was evaluated using a resazurin-based assay. Parasites were added to 100 μl of serial dilutions of the compounds in supplemented complete medium at a cell density of 5 × 10^5 ml^−1. As a quality control, a dose–response curve with the antileishmanial drug miltefosine was included in all assays. The final volume of each assay was 200 μl per well, and each condition was tested in duplicate. After a 72-hour incubation under specific conditions for each parasite, 20 μl of a 0.5 mM resazurin solution was added, and the plates were incubated for an additional 4 hours under the same conditions. Fluorescence was measured at 544 nm for excitation and 590 nm for emission using a Synergy 2 Multi-Mode Reader (Biotek, Winooski, VT, USA). Results were expressed as the percentage of parasite growth inhibition compared to controls (untreated parasites) and represent the average of at least three independent experiments. The effect was evaluated by determining the IC50 value (the concentration required to inhibit 50% growth), calculated using non-linear regression curves via GraphPad Prism version 8.1.1 for Windows (GraphPad Software, San Diego, CA, USA).
# [2] = Cytotoxicity on THP-1-derived macrophages (MTT assay); type: cell-based; conditions: human, THP-1-derived macrophages (PMA-differentiated), value or interval
# Description: The THP-1 cell line, a human leukemia line (ATCC® TIB-202™), was cultured in RPMI-1640 medium supplemented with 10% heat-inactivated fetal bovine serum (FBS), 2 mM. L-Glutamine, 100 IU mL^−1 penicillin/streptomycin, and 20 mM HEPES. The cells were maintained in a humidified incubator at 37 °C with 5% CO2. Subculturing was performed every three days, using 20 mL of media at a concentration of 2 × 10^5 cells per mL in a T75 flask. All cell culture reagents were purchased from Lonza Bioscience (Morrisville, NC).
# The cytotoxicity of the compounds on THP-1-derived macrophages was evaluated using the colorimetric MTT assay (3-(4,5-dimethylthiazol-2-yl)-2,5-diphenyltetrazolium bromide), as described in Magoulas et al. (2021).[28] THP-1 cells were suspended in complete RPMI medium at a density of 1 × 10^6 cells per mL, and 100 μL of this suspension was seeded into each well of a 96-well plate. The cells were differentiated into macrophages by adding 40 ng mL^−1 of phorbol-myristate 13-acetate (PMA, Sigma, Saint Louis, MI, USA) for 24 hours, followed by replacement with fresh medium for an additional 24 hours. Subsequently, the cells were incubated with 100 μL of various compounds, diluted in complete RPMI medium, at concentrations ranging from 100 to 12.5 μM. Each condition was tested in triplicate. After 72 hours of incubation at 37 °C with 5% CO2, the medium was removed, and 200 μL of a 0.5 mg mL^−1 MTT solution, diluted in RPMI, was added to each well. The plates were incubated for an additional 4 hours. Following this incubation, 160 μL of the medium was removed and replaced with 160 μL of 2-propanol. Absorbance was measured at 570 nm using a Synergy 2 Multi-Mode Reader (Biotek, Winooski, VT, USA). Cytotoxicity was determined by presenting the CC50 (the concentration of the drug that reduces cell viability by 50%) interval or by calculating the CC50 value through non-linear regression analysis using GraphPad Prism version 8.1.1 for Windows (GraphPad Software, San Diego, CA, USA). The results represent the average of at least three independent experiments.
# [3] = system: bloodstream-form Trypanosoma brucei; assay: Activity against bloodstream-form Trypanosoma brucei (Alamar Blue growth inhibition); type: cell-based, Trypanosoma brucei (strain 427); conditions: for IC50 / IC90: Trypanosoma brucei, bloodstream form; for IC50: concentration that inhibits growth by 50%, read-out: T. brucei IC50; for IC90: concentration that inhibits growth by 90%, read-out: T. brucei IC90; for S.I. (selectivity index): ratio of IC50 values obtained with L6 cells and T. brucei
# Description: Bloodstream form T. brucei (strain 427) were cultured at 37 °C in modified Iscove's medium. Trypanocidal activity was assessed by growing parasites in microtiter plates in the presence of various drug concentrations. […] The plates were incubated for 48 hours at 37 °C and 20 μL Alamar Blue was then added to each well. After an additional overnight incubation, the fluorescence was determined using a Gemini fluorescent plate reader (Molecular Devices). Inhibition of growth was calculated by comparison with control values and IC50 and IC90 values were determined in triplicate using linear regression analysis.
# L6 cells = assay: Cytotoxic activity against rat skeletal myoblast L6 cells (Alamar Blue); type: cell-based; conditions: 120 h, cytotoxicity, 5 days
# Description: The cytotoxicity against mammalian cells was assessed using microtitre plates. Briefly, L6 cells (a rat skeletal muscle line) were seeded at 1 × 10^4 mL^−1 in 200 μL of RPMI-1640 growth medium (with 10% fetal calf serum) containing 7 different compound concentrations in a range previously established to encompass both the IC50 and IC90 values. The plates were incubated for 5 days at 37 °C and 20 μL Alamar Blue (Biosource Ltd, Wilton, North Yorkshire England.) was then added to each well. After an additional 8 hours incubation, the fluorescence was determined using a Gemini fluorescent plate reader (Molecular Devices). Inhibition of growth was calculated by comparison with control values and IC50 and IC90 values were determined in triplicate using linear regression analysis.
# T. cruzi epimastigotes = assay: Activity against Trypanosoma cruzi epimastigotes (Alamar Blue growth inhibition); type: cell-based, Trypanosoma cruzi (strain CL Brener); conditions: CL Brener
# Description: Trypanocidal activity was assessed by growing parasites in microtiter plates in the presence of various drug concentrations. […] The plates were incubated for 4 days at 28 °C and 20 μL Alamar Blue (Biosource UK Ltd) was then added to each well. After an additional 3 days incubation, the fluorescence was determined using a Gemini fluorescent plate reader (Molecular Devices). Inhibition of growth was calculated by comparison with control values and IC50 and IC90 values were determined in triplicate using linear regression analysis.
# [4] = system: T. cruzi intracellular amastigotes; assay: microbe, parasite or virus in culture; type: cell-based, Trypanosoma cruzi CL Brener PpyRE9h:mScarlet; conditions: Trypanosoma cruzi, 120 h; in HeLa cells, 5 days
# Description: Assays were performed in 96-well black (clear bottom) microtitre plates (Corning Inc.). HeLa ^† cells were seeded at 10^4 per well, incubated for 3 days, and then infected with T. cruzi CL Brener PpyRE9h : mScarlet[25] culture form trypomastigotes (1 : 1 multiplicity of infection). After 16 hours, extracellular parasites were removed by washing in growth medium (×3), test compounds were added, and the plates incubated for 5 days. Fluorescence intensities were then determined using a BMG FLUOstar Omega plate reader (ex 545 nm, em 590 nm), and the data analysed using GraphPad Prism 9.0 software. The values were expressed as IC50/90 ± SD and are the mean of triplicate experiments.
Structure (SMILES),IC50 [1],SI (promastigotes) CC50/Li IC50 [1],CC50 at 72 h [2],IC50 [3],IC90 [3],S.I. (selectivity index) [3],IC50 (L6 cells),IC50 (T. cruzi epimastigotes),IC90 (T. cruzi epimastigotes),IC50 [4],IC90 [4]
O=C(NCc1ccc(C23CC4CC(CC(C4)C2)C3)cc1)c1ccc([N+](=O)[O-])o1 [1a],3.46 µM,SI > 29,> 100 µM,–,–,–,–,–,–,–,–
O=C(NCCc1ccc(C23CC4CC(CC(C4)C2)C3)cc1)c1ccc([N+](=O)[O-])o1 [1b],0.66 µM,–,50 to 100 µM,–,–,–,–,–,–,–,–
"O=C(Nc1ccc(C2C3CC4CC(C3)CC2C4)cc1)c1ccc([N+](=O)[O-])o1 (centres unmarked) [2a, N-[4-(2-Adamantyl)phenyl]-5-nitrofuran-2-carboxamide]",0.12 µM,–,1.56 to 6.25 µM,130 ± 40 nM,330 ± 20 nM,4,470 ± 70 nM,550 ± 50 nM,1200 ± 30 nM,–,–
"O=C(NCCc1ccc(C2C3CC4CC(C3)CC2C4)cc1)c1ccc([N+](=O)[O-])o1 (centres unmarked) [2c, N-[4-(2-Adamantyl)phenethyl]-5-nitrofuran-2-carboxamide]",0.05 µM,–,3.13 to 12.5 µM,42 ± 8 nM,73 ± 8 nM,42,1800 ± 200 nM,280 ± 80 nM,1200 ± 80 nM,–,–
"O=C(Cn1ccnc1[N+](=O)[O-])Nc1ccc(C23CC4CC(CC(C4)C2)C3)cc1 [3a, N-[4-(1-Adamantyl)phenyl]-2-(2-nitro-1H-imidazol-1-yl)acetamide]",0.7 µM,–,25 to 100 µM,–,–,–,–,–,–,–,–
"O=C(Cn1ccnc1[N+](=O)[O-])NCc1ccc(C23CC4CC(CC(C4)C2)C3)cc1 [3b, N-[4-(1-Adamantyl)benzyl]-2-(2-nitro-1H-imidazol-1-yl)acetamide]",13.8 µM,–,50 to 100 µM,–,–,–,–,–,–,–,–
"O=C(Cn1ccnc1[N+](=O)[O-])NCCc1ccc(C23CC4CC(CC(C4)C2)C3)cc1 [3c, N-[4-(1-Adamantyl)phenethyl]-2-(2-nitro-1H-imidazol-1-yl) acetamide]",22.1 µM,–,50 to 100 µM,–,–,–,–,–,–,–,–
"O=C(Cn1ccnc1[N+](=O)[O-])NCc1ccc(C2C3CC4CC(C3)CC2C4)cc1 (centres unmarked) [4b, N-[4-(2-Adamantyl)benzyl]-2-(2-nitro-1H-imidazol-1-yl)acetamide]",> 40 µM,–,> 100 µM,–,–,–,–,–,–,–,–
"O=C(Cn1ccnc1[N+](=O)[O-])NCCc1ccc(C2C3CC4CC(C3)CC2C4)cc1 (centres unmarked) [4c, N-[4-(2-Adamantyl)phenethyl]-2-(2-nitro-1H-imidazol-1-yl)acetamide]",37.9 µM,SI > 1,> 50 µM,–,–,–,–,–,–,–,–
"O=C(Cc1ccc(C23CC4CC(CC(C4)C2)C3)cc1)NCCn1ccnc1[N+](=O)[O-] [5a, 2-[4-(1-Adamantyl)phenyl]-N-[2-(2-nitro-1H-imidazol-1-yl)ethyl] acetamide]",3.48 µM,–,25 to 50 µM,–,–,–,–,–,–,–,–
"O=C(Cc1ccc(C23CC4CC(CC(C4)C2)C3)cc1)NCCCn1ccnc1[N+](=O)[O-] [5b, 2-[4-(1-Adamantyl)phenyl]-N-[3-(2-nitro-1H-imidazol-1-yl)propyl] acetamide]",4.81 µM,–,50 to 100 µM,–,–,–,–,–,–,–,–
"O=C(NCCn1cnc([N+](=O)[O-])n1)c1ccc(C23CC4CC(CC(C4)C2)C3)cc1 [6a, 4-(1-Adamantyl)-N-[2-(3-nitro-1H-1,2,4-triazol-1-yl)ethyl] benzamide]",0.74 µM,–,25 to 50 µM,230 ± 50 nM,360 ± 30 nM,120,28000 ± 7000 nM,540 ± 20 nM,1200 ± 10 nM,4.88 ± 0.51 µM,21.4 ± 3.4 µM
"O=C(Nc1ccc(C23CC4CC(CC(C4)C2)C3)cc1)c1ccc([N+](=O)[O-])o1 [7a, N-[4-(1-Adamantyl)phenyl]-5-nitrofuran-2-carboxamide]",0.76 µM,–,6.25 to 25 µM,91 ± 5 nM,220 ± 10 nM,–,< 30 nM,> 25 nM,> 25 nM,–,–
"O=C(Cn1cnc([N+](=O)[O-])n1)Nc1ccc(C23CC4CC(CC(C4)C2)C3)cc1 [7b, N-[4-(1-Adamantyl)phenyl]-2-(3-nitro-1H-1,2,4-triazol-1-yl)acetamide]",–,–,–,200 ± 70 nM,910 ± 190 nM,35,7100 ± 300 nM,–,–,–,–
"O=C(Cn1cnc([N+](=O)[O-])n1)Nc1ccccc1C12CC3CC(CC(C3)C1)C2 [7c, N-[2-(1-Adamantyl)phenyl]-2-(3-nitro-1H-1,2,4-triazol-1-yl)acetamide]",–,–,–,> 25000 nM,> 25000 nM,–,–,> 25000 nM,> 25000 nM,–,–
"CSc1ccc(OCc2ncc([N+](=O)[O-])n2C)cc1 [Fxd, fexinidazole, reference compound]",–,–,–,2400 ± 200 nM,–,–,–,–,–,–,–
